Test results published in ChEMBL document CHEMBL4270670 (J Med Chem, 2018).

Key:
Mus musculus [1] = test: Acute toxicity in Kunming mouse assessed as gross lesions at 2000 mg/kg, ig after 1 week; format: organism-based; details: in vivo, po, 168 h
in vitro [2] = details: dog, MDCK cells
Mus musculus [3] = test: Acute toxicity in Kunming mouse at 2000 mg/kg, ig after 1 week; format: organism-based; details: in vivo, po, 168 h
in vitro [4] = details: human, liver microsomes
Influenza B virus = details: mdck
Rattus norvegicus [5] = organism: Rattus norvegicus; details: in vivo, iv, 2 mg/kg
Influenza A virus [6] = test: Antiviral activity against Influenza A virus H5N2 infected in specific pathogen free embryonated egg assessed as survival rate at 10 mM preincubated for 1 hr prior to inoculation measured after 48 hrs (reference value: 0%); format: functional
Influenza A virus [7] = test: microbe, parasite or virus in culture; details: A/Puerto Rico/8/1934(H1N1), MDCK, 48 h
Influenza A virus [8] = test: Antiviral activity against Influenza A virus H5N2 infected in specific pathogen free embryonated egg assessed as survival rate at 10 mM preincubated for 1 hr prior to inoculation measured after 72 hrs (reference value: 0%); format: functional
[9] = MRT (0 to infinity) in Sprague-Dawley rat at 2 mg/kg, iv by LC-MS analysis; format: ADME, organism-based; details: in vivo
in vitro [10] = details: human, plasma
Rattus norvegicus [11] = test: Half life in Sprague-Dawley rat at 2 mg/kg, iv by LC-MS analysis; format: ADME, organism-based; details: in vivo
in vitro [12] = details: human, plasma; remark: listed apart in the source
in vitro [13] = details: human, liver microsomes; remark: listed apart in the source
Rattus norvegicus [14] = test: Cmax in Sprague-Dawley rat at 20 mg/kg, po by LC-MS analysis; format: ADME, organism-based; parameters: dose 20 mg/kg, route oral; details: in vivo
in vivo [15] = details: Sprague-Dawley, rat, iv, 2 mg/kg
Rattus norvegicus [16] = test: Tmax in Sprague-Dawley rat at 2 mg/kg, iv by LC-MS analysis; format: ADME, organism-based; details: in vivo
Influenza A virus [17] = test: Antiviral activity against Influenza A virus H5N2 infected in specific pathogen free embryonated egg assessed as survival rate at 0.156 mM preincubated for 1 hr prior to inoculation measured after 72 hrs (reference value: 0%); format: functional
Rattus norvegicus [18] = test: Volume of distribution in Sprague-Dawley rat at 2 mg/kg, iv by LC-MS analysis; format: ADME, organism-based; details: in vivo
Influenza A virus [19] = test: Antiviral activity against Influenza A virus H5N2 infected in specific pathogen free embryonated egg assessed as survival rate at 0.039 mM preincubated for 1 hr prior to inoculation measured after 48 hrs (reference value: 0%); format: functional
Influenza A virus [20] = test: Antiviral activity against Influenza A virus H5N2 infected in specific pathogen free embryonated egg assessed as survival rate at 0.156 mM preincubated for 1 hr prior to inoculation measured after 48 hrs (reference value: 0%); format: functional
[21] = Oral bioavailability in Sprague-Dawley rat at 20 mg/kg by LC-MS analysis; format: ADME, organism-based; details: in vivo
Influenza A virus [22] = test: Antiviral activity against Influenza A virus H5N2 infected in specific pathogen free embryonated egg assessed as survival rate at 0.625 mM preincubated for 1 hr prior to inoculation measured after 72 hrs (reference value: 0%); format: functional
Influenza A virus [23] = test: Antiviral activity against Influenza A virus H5N2 infected in specific pathogen free embryonated egg assessed as survival rate at 2.5 mM preincubated for 1 hr prior to inoculation measured after 72 hrs (reference value: 0%); format: functional
Rattus norvegicus [24] = test: Bioavailability in Sprague-Dawley rat at 2 mg/kg, iv by LC-MS analysis; format: ADME, organism-based; details: in vivo
in vitro [25] = details: chicken, chicken embryo fibroblasts
[26] = MRT (0 to infinity) in Sprague-Dawley rat at 20 mg/kg, po by LC-MS analysis; format: ADME, organism-based; details: in vivo
Rattus norvegicus [27] = organism: Rattus norvegicus; details: in vivo, po, 20 mg/kg
Rattus norvegicus [28] = test: Half life in Sprague-Dawley rat at 20 mg/kg, po by LC-MS analysis; format: ADME, organism-based; details: in vivo
in vitro [29] = details: human, plasma; remark: listed apart in the source
Influenza A virus [30] = test: Antiviral activity against Influenza A virus H5N2 infected in specific pathogen free embryonated egg assessed as survival rate at 2.5 mM preincubated for 1 hr prior to inoculation measured after 48 hrs (reference value: 0%); format: functional
in vitro [31] = details: human, liver microsomes; remark: listed apart in the source
in vivo [32] = details: Sprague-Dawley, rat, po, 20 mg/kg
Influenza A virus [33] = test: Antiviral activity against Influenza A virus H5N2 infected in specific pathogen free embryonated egg assessed as survival rate at 0.039 mM preincubated for 1 hr prior to inoculation measured after 72 hrs (reference value: 0%); format: functional
Rattus norvegicus [34] = test: Clearance in Sprague-Dawley rat at 2 mg/kg, iv by LC-MS analysis; format: ADME, organism-based; details: in vivo
in vitro [35] = details: human, plasma; remark: listed apart in the source
in vitro [36] = details: human, liver microsomes; remark: listed apart in the source
Influenza A virus [37] = test: Antiviral activity against Influenza A virus H5N2 infected in specific pathogen free embryonated egg assessed as survival rate at 0.625 mM preincubated for 1 hr prior to inoculation measured after 48 hrs (reference value: 0%); format: functional
Rattus norvegicus [38] = test: Tmax in Sprague-Dawley rat at 20 mg/kg, po by LC-MS analysis; format: ADME, organism-based; details: in vivo
Influenza A virus [39] = test: microbe, parasite or virus in culture; details: MDCK, 48 h
in vitro [40] = details: human, plasma; remark: listed apart in the source
[41] = human, microsomes, 20 min

CCC(CC)O[C@@H]1C=C(C(=O)O)C[C@H](NCc2ccc(Sc3ccccc3)cc2)[C@H]1NC(C)=O
Activity (Mus musculus [1]): Non-Toxic
CC50 at 48 h (in vitro [2]): > 250 µM
Activity (Mus musculus [3]): Non-Toxic
remaining at 1 h, 2 uL (in vitro [4]): 115%
EC50 (Influenza B virus): 19 µM
AUC (Rattus norvegicus [5]): 1464.41 ng·h/mL
survival at 10000 µM (Influenza A virus [6]): 100%
EC50 (Influenza A virus [7]): 0.06 µM
survival at 10000 µM (Influenza A virus [8]): 60%
MRT inf [9]: 2.03 h
half-life at 2 µM (in vitro [10]): > 4.82 h
t1/2 (Rattus norvegicus [11]): 1.76 h
remaining at 1 h, 2 µM (in vitro [12]): 100%
microsomal CLint at 20 min, 2 uL (in vitro [13]): < 9.6 µL/min/mg
Cmax (Rattus norvegicus [14]): 407 µg/mL
AUC(0-t) (in vivo [15]): 1460 ng·h/mL
Tmax (Rattus norvegicus [16]): 4.98 min
survival at 156 µM (Influenza A virus [17]): 0%
Vd (Rattus norvegicus [18]): 3.51 L/kg
survival at 39 µM (Influenza A virus [19]): 0%
survival at 156 µM (Influenza A virus [20]): 0%
bioavailability [21]: 10.3%
survival at 625 µM (Influenza A virus [22]): 0%
survival at 2500 µM (Influenza A virus [23]): 20%
F (Rattus norvegicus [24]): 100%
CC50 at 48 h (in vitro [25]): > 200 µM
MRT inf [26]: 4.05 h
AUC (Rattus norvegicus [27]): 1558.63 ng·h/mL
t1/2 (Rattus norvegicus [28]): 3.82 h
remaining at 10 min, 2 µM (in vitro [29]): 102%
survival at 2500 µM (Influenza A virus [30]): 80%
half-life at 2 uL (in vitro [31]): > 2.42 h
AUC(0-t) (in vivo [32]): 1500 ng·h/mL
survival at 39 µM (Influenza A virus [33]): 0%
CL (Rattus norvegicus [34]): 1.41 mL/h/kg
remaining at 0.5 h, 2 µM (in vitro [35]): 100%
remaining at 1 h, 2 uL (in vitro [36]): 101%
survival at 625 µM (Influenza A virus [37]): 60%
Tmax (Rattus norvegicus [38]): 0.83 h
EC50 (Influenza A virus [39]): 71 µM
remaining at 2 h, 2 µM (in vitro [40]): 91.6%

CCC(CC)O[C@@H]1C=C(C(=O)O)C[C@H](NCc2ccc(-c3ccc(SC)cc3)cc2)[C@H]1NC(C)=O
CC50 at 48 h (in vitro [25]): > 200 µM

CCC(CC)O[C@@H]1C=C(C(=O)O)C[C@H](NCc2ccc(C(C)(C)C)cc2)[C@H]1NC(C)=O
CC50 at 48 h (in vitro [25]): > 200 µM

CCC(CC)O[C@@H]1C=C(C(=O)O)C[C@H](NCc2ccc(SC3CCCC3)cc2)[C@H]1NC(C)=O
CC50 at 48 h (in vitro [25]): > 200 µM

CCC(CC)Oc1cccc(CN[C@H]2CC(C(=O)O)=C[C@@H](OC(CC)CC)[C@@H]2NC(C)=O)c1
CC50 at 48 h (in vitro [25]): > 200 µM

CCC(CC)O[C@@H]1C=C(C(=O)O)C[C@H](NCc2ccc(S(=O)(=O)c3ccccc3)cc2)[C@H]1NC(C)=O
CC50 at 48 h (in vitro [25]): > 200 µM

CCC(CC)O[C@@H]1C=C(C(=O)O)C[C@H](NCc2ccc(OC)cc2)[C@H]1NC(C)=O
CC50 at 48 h (in vitro [2]): > 250 µM
EC50 (Influenza B virus): > 100 µM
EC50 (Influenza A virus [7]): 3.7 µM
CC50 at 48 h (in vitro [25]): > 200 µM
EC50 (Influenza A virus [39]): > 100 µM

CCC(CC)O[C@@H]1C=C(C(=O)O)C[C@H](NCc2ccc(SC3CCCCC3)cc2)[C@H]1NC(C)=O
CC50 at 48 h (in vitro [2]): > 250 µM
EC50 (Influenza B virus): > 100 µM
EC50 (Influenza A virus [7]): 17 µM
CC50 at 48 h (in vitro [25]): > 200 µM
EC50 (Influenza A virus [39]): > 100 µM

CCC(CC)O[C@@H]1C=C(C(=O)O)C[C@H](NCc2ccc(-c3csc4ccccc34)cc2)[C@H]1NC(C)=O
CC50 at 48 h (in vitro [25]): > 200 µM

CCC(CC)O[C@@H]1C=C(C(=O)O)C[C@H](NCc2ccc(C(C)C)cc2)[C@H]1NC(C)=O
CC50 at 48 h (in vitro [25]): > 200 µM

CCC(CC)O[C@@H]1C=C(C(=O)O)C[C@H](NCc2ccc(SCC(C)C)cc2)[C@H]1NC(C)=O
CC50 at 48 h (in vitro [25]): > 200 µM

O=C(O)Cc1ccccc1Nc1c(Cl)cccc1Cl [DICLOFENAC]
remaining at 1 h, 2 uL (in vitro [4]): 103%
microsomal CLint at 20 min, 2 uL (in vitro [13]): 97.7 µL/min/mg
CLH [41]: 5.28 mL/h/kg
half-life at 2 uL (in vitro [31]): 0.237 h
remaining at 1 h, 2 uL (in vitro [36]): 5.4%

CCC(CC)O[C@@H]1C=C(C(=O)O)C[C@H](N)[C@H]1NC(C)=O [OSELTAMIVIR CARBOXYLATE]
CC50 at 48 h (in vitro [2]): > 250 µM
EC50 (Influenza B virus): 2.9 µM
survival at 10000 µM (Influenza A virus [6]): 60%
EC50 (Influenza A virus [7]): 0.041 µM
survival at 10000 µM (Influenza A virus [8]): 0%
survival at 156 µM (Influenza A virus [17]): 0%
survival at 39 µM (Influenza A virus [19]): 0%
survival at 156 µM (Influenza A virus [20]): 0%
survival at 625 µM (Influenza A virus [22]): 0%
survival at 2500 µM (Influenza A virus [23]): 0%
CC50 at 48 h (in vitro [25]): > 200 µM
survival at 2500 µM (Influenza A virus [30]): 20%
survival at 39 µM (Influenza A virus [33]): 0%
survival at 625 µM (Influenza A virus [37]): 0%
EC50 (Influenza A virus [39]): 1.2 µM

CC(C)[N+](C)(CCOC(=O)C1c2ccccc2Oc2ccccc21)C(C)C.[Br-] [PROPANTHELINE BROMIDE]
half-life at 2 µM (in vitro [10]): 0.18 h
remaining at 1 h, 2 µM (in vitro [12]): 2.1%
remaining at 10 min, 2 µM (in vitro [29]): 54.9%
remaining at 0.5 h, 2 µM (in vitro [35]): 19.1%

NC(=O)c1ncn([C@@H]2O[C@H](CO)[C@@H](O)[C@H]2O)n1 [RIBAVIRIN]
CC50 at 48 h (in vitro [25]): > 200 µM

CC(=O)N[C@H]1[C@H]([C@H](O)[C@H](O)CO)OC(C(=O)O)=C[C@@H]1NC(=N)N [ZANAMIVIR]
CC50 at 48 h (in vitro [2]): > 250 µM
EC50 (Influenza B virus): 0.9 µM
EC50 (Influenza A virus [7]): 0.038 µM
CC50 at 48 h (in vitro [25]): > 200 µM
EC50 (Influenza A virus [39]): 0.3 µM
